From the NIST ThermoML archive (doi:10.1021/acs.jced.6b00496)
± gives the expanded uncertainty stated by the source.

Test: xn = mol fraction of the nth substance listed
Settings: 81.5 kPa, Liquid; for speed of sound: Sing-around technique in a fixed-path interferometer; for mass density: Vibrating tube method

Work on `CCn1cc[n+](C)c1.F[B-](F)(F)F` [1-ethyl-3-methylimidazolium tetrafluoroborate] + CN(C)C=O yielded a speed of sound (293.15 K, x1 = 0.0997) of 1524.5 ± 3.1 m/s, a speed of sound (293.15 K, x1 = 0.2042) of 1552.3 ± 3.1 m/s and a speed of sound (293.15 K, x1 = 0.2983) of 1571.7 ± 3.2 m/s. For the same molecule, the speed of sound (293.15 K, x1 = 0.4111) was 1589.3 ± 3.2 m/s, the speed of sound (293.15 K, x1 = 0.5003) was 1600.9 ± 3.3 m/s and the speed of sound (293.15 K, x1 = 0.585) was 1609.6 ± 3.3 m/s. The speed of sound (293.15 K, x1 = 0.6965) was 1618.8 ± 3.4 m/s, the speed of sound (293.15 K, x1 = 0.7833) was 1625.5 ± 3.5 m/s and the speed of sound (293.15 K, x1 = 0.9134) was 1633.1 ± 3.6 m/s. For the same molecule, the speed of sound (293.15 K, x1 = 1) was 1640.4 ± 3.7 m/s, the mass density (293.15 K, x1 = 0.0997) was 1019.18 ± 4.1 kg/m3 and the mass density (293.15 K, x1 = 0.2042) was 1075.44 ± 4.3 kg/m3. The mass density (293.15 K, x1 = 0.2983) was 1116.82 ± 4.5 kg/m3, the mass density (293.15 K, x1 = 0.4111) was 1157.47 ± 4.6 kg/m3 and the mass density (293.15 K, x1 = 0.5003) was 1184.76 ± 4.8 kg/m3. It also gave a mass density (293.15 K, x1 = 0.585) of 1206.75 ± 4.9 kg/m3, a mass density (293.15 K, x1 = 0.6965) of 1231.36 ± 5 kg/m3 and a mass density (293.15 K, x1 = 0.7833) of 1247.19 ± 5.1 kg/m3. For the same molecule, the mass density (293.15 K, x1 = 0.9134) was 1267.67 ± 5.2 kg/m3, the mass density (293.15 K, x1 = 1) was 1285.95 ± 5.3 kg/m3 and the speed of sound (298.15 K, x1 = 0.0997) was 1506.5 ± 3.1 m/s. It also gave a speed of sound (298.15 K, x1 = 0.2042) of 1535.6 ± 3.1 m/s, a speed of sound (298.15 K, x1 = 0.2983) of 1555.9 ± 3.2 m/s and a speed of sound (298.15 K, x1 = 0.4111) of 1574.6 ± 3.2 m/s. The speed of sound (298.15 K, x1 = 0.5003) was 1586.9 ± 3.3 m/s, the speed of sound (298.15 K, x1 = 0.585) was 1596.1 ± 3.3 m/s and the speed of sound (298.15 K, x1 = 0.6965) was 1605.9 ± 3.4 m/s. It also gave a speed of sound (298.15 K, x1 = 0.7833) of 1612.9 ± 3.5 m/s, a speed of sound (298.15 K, x1 = 0.9134) of 1620.9 ± 3.6 m/s and a speed of sound (298.15 K, x1 = 1) of 1628.4 ± 3.7 m/s. For the same molecule, the mass density (298.15 K, x1 = 0.0997) was 1014.69 ± 4.1 kg/m3, the mass density (298.15 K, x1 = 0.2042) was 1071.12 ± 4.3 kg/m3 and the mass density (298.15 K, x1 = 0.2983) was 1112.62 ± 4.5 kg/m3. For the same molecule, the mass density (298.15 K, x1 = 0.4111) was 1153.38 ± 4.6 kg/m3, the mass density (298.15 K, x1 = 0.5003) was 1180.74 ± 4.7 kg/m3 and the mass density (298.15 K, x1 = 0.585) was 1202.77 ± 4.8 kg/m3. It also gave a mass density (298.15 K, x1 = 0.6965) of 1227.44 ± 5 kg/m3, a mass density (298.15 K, x1 = 0.7833) of 1243.3 ± 5 kg/m3 and a mass density (298.15 K, x1 = 0.9134) of 1263.82 ± 5.2 kg/m3. For the same molecule, the mass density (298.15 K, x1 = 1) was 1282.14 ± 5.3 kg/m3, the speed of sound (303.15 K, x1 = 0.0997) was 1488.6 ± 3.1 m/s and the speed of sound (303.15 K, x1 = 0.2042) was 1519 ± 3.1 m/s. The speed of sound (303.15 K, x1 = 0.2983) was 1540.4 ± 3.2 m/s, the speed of sound (303.15 K, x1 = 0.4111) was 1560.1 ± 3.2 m/s and the speed of sound (303.15 K, x1 = 0.5003) was 1573 ± 3.3 m/s. For the same molecule, the speed of sound (303.15 K, x1 = 0.585) was 1582.7 ± 3.3 m/s, the speed of sound (303.15 K, x1 = 0.6965) was 1593 ± 3.4 m/s and the speed of sound (303.15 K, x1 = 0.7833) was 1600.5 ± 3.5 m/s. The speed of sound (303.15 K, x1 = 0.9134) was 1608.8 ± 3.6 m/s, the speed of sound (303.15 K, x1 = 1) was 1616 ± 3.7 m/s and the mass density (303.15 K, x1 = 0.0997) was 1010.19 ± 4 kg/m3. It also gave a mass density (303.15 K, x1 = 0.2042) of 1066.81 ± 4.3 kg/m3, a mass density (303.15 K, x1 = 0.2983) of 1108.42 ± 4.4 kg/m3 and a mass density (303.15 K, x1 = 0.4111) of 1149.29 ± 4.6 kg/m3. The mass density (303.15 K, x1 = 0.5003) was 1176.72 ± 4.7 kg/m3, the mass density (303.15 K, x1 = 0.585) was 1198.81 ± 4.8 kg/m3 and the mass density (303.15 K, x1 = 0.6965) was 1223.53 ± 4.9 kg/m3. It also gave a mass density (303.15 K, x1 = 0.7833) of 1239.43 ± 5 kg/m3, a mass density (303.15 K, x1 = 0.9134) of 1259.99 ± 5.2 kg/m3 and a mass density (303.15 K, x1 = 1) of 1278.34 ± 5.3 kg/m3. For the same molecule, the speed of sound (308.15 K, x1 = 0.0997) was 1470.8 ± 3.1 m/s, the speed of sound (308.15 K, x1 = 0.2042) was 1502.6 ± 3.1 m/s and the speed of sound (308.15 K, x1 = 0.2983) was 1524.9 ± 3.2 m/s. For the same molecule, the speed of sound (308.15 K, x1 = 0.4111) was 1545.6 ± 3.2 m/s, the speed of sound (308.15 K, x1 = 0.5003) was 1559.2 ± 3.3 m/s and the speed of sound (308.15 K, x1 = 0.585) was 1569.4 ± 3.3 m/s. For the same molecule, the speed of sound (308.15 K, x1 = 0.6965) was 1580.3 ± 3.4 m/s, the speed of sound (308.15 K, x1 = 0.7833) was 1588.2 ± 3.5 m/s and the speed of sound (308.15 K, x1 = 0.9134) was 1596.9 ± 3.6 m/s. The speed of sound (308.15 K, x1 = 1) was 1604.9 ± 3.7 m/s, the mass density (308.15 K, x1 = 0.0997) was 1005.7 ± 4 kg/m3 and the mass density (308.15 K, x1 = 0.2042) was 1062.49 ± 4.3 kg/m3. The mass density (308.15 K, x1 = 0.2983) was 1104.23 ± 4.4 kg/m3, the mass density (308.15 K, x1 = 0.4111) was 1145.23 ± 4.6 kg/m3 and the mass density (308.15 K, x1 = 0.5003) was 1172.72 ± 4.7 kg/m3. It also gave a mass density (308.15 K, x1 = 0.585) of 1194.86 ± 4.8 kg/m3, a mass density (308.15 K, x1 = 0.6965) of 1219.63 ± 4.9 kg/m3 and a mass density (308.15 K, x1 = 0.7833) of 1235.57 ± 5 kg/m3. It also gave a mass density (308.15 K, x1 = 0.9134) of 1256.17 ± 5.1 kg/m3, a mass density (308.15 K, x1 = 1) of 1274.55 ± 5.3 kg/m3 and a speed of sound (313.15 K, x1 = 0.0997) of 1453.1 ± 3.1 m/s. It also gave a speed of sound (313.15 K, x1 = 0.2042) of 1486.2 ± 3.1 m/s, a speed of sound (313.15 K, x1 = 0.2983) of 1509.6 ± 3.2 m/s and a speed of sound (313.15 K, x1 = 0.4111) of 1531.3 ± 3.2 m/s. For the same molecule, the speed of sound (313.15 K, x1 = 0.5003) was 1545.6 ± 3.3 m/s, the speed of sound (313.15 K, x1 = 0.585) was 1556.3 ± 3.3 m/s and the speed of sound (313.15 K, x1 = 0.6965) was 1567.7 ± 3.4 m/s. For the same molecule, the speed of sound (313.15 K, x1 = 0.7833) was 1576 ± 3.5 m/s, the speed of sound (313.15 K, x1 = 0.9134) was 1585 ± 3.6 m/s and the speed of sound (313.15 K, x1 = 1) was 1593.4 ± 3.7 m/s. The mass density (313.15 K, x1 = 0.0997) was 1001.2 ± 4 kg/m3, the mass density (313.15 K, x1 = 0.2042) was 1058.19 ± 4.2 kg/m3 and the mass density (313.15 K, x1 = 0.2983) was 1100.05 ± 4.4 kg/m3. The mass density (313.15 K, x1 = 0.4111) was 1141.17 ± 4.6 kg/m3, the mass density (313.15 K, x1 = 0.5003) was 1168.73 ± 4.7 kg/m3 and the mass density (313.15 K, x1 = 0.585) was 1190.92 ± 4.8 kg/m3. The mass density (313.15 K, x1 = 0.6965) was 1215.75 ± 4.9 kg/m3, the mass density (313.15 K, x1 = 0.7833) was 1231.73 ± 5 kg/m3 and the mass density (313.15 K, x1 = 0.9134) was 1252.37 ± 5.1 kg/m3. For the same molecule, the mass density (313.15 K, x1 = 1) was 1270.78 ± 5.2 kg/m3, the speed of sound (318.15 K, x1 = 0.0997) was 1435.6 ± 3.1 m/s and the speed of sound (318.15 K, x1 = 0.2042) was 1470 ± 3.1 m/s. For the same molecule, the speed of sound (318.15 K, x1 = 0.2983) was 1494.4 ± 3.2 m/s, the speed of sound (318.15 K, x1 = 0.4111) was 1517.1 ± 3.2 m/s and the speed of sound (318.15 K, x1 = 0.5003) was 1532 ± 3.3 m/s. For the same molecule, the speed of sound (318.15 K, x1 = 0.585) was 1543.3 ± 3.3 m/s, the speed of sound (318.15 K, x1 = 0.6965) was 1555.3 ± 3.4 m/s and the speed of sound (318.15 K, x1 = 0.7833) was 1563.9 ± 3.5 m/s. It also gave a speed of sound (318.15 K, x1 = 0.9134) of 1573.3 ± 3.6 m/s and a speed of sound (318.15 K, x1 = 1) of 1582 ± 3.7 m/s.
